Target: T1, recombinant N-terminal MLH1 (residues 15-340) (Homo sapiens, UniProt P40692)
T1 construct: recombinant N-terminal MLH1 (residues 15-340)
T1 sequence (P40692 15-340): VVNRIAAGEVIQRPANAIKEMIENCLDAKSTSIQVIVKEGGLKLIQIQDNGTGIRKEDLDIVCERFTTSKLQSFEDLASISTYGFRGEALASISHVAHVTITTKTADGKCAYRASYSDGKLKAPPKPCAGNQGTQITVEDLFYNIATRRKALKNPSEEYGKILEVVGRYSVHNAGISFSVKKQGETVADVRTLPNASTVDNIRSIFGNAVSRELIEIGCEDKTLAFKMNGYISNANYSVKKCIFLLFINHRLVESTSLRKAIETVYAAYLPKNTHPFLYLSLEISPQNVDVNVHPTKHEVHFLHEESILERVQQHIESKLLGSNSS
Assay: Fluorescence Polarisation Assay for MLH1
Type: binding
Conditions: 100 nM N-terminal MLH1, 5 nM probe compound
Protocol: Fluorescence Polarisation Assay for MLH1
Test compounds, as 10 mM DMSO stocks, were dispensed into a 384-well Low Flange Black Flat Bottom Polystyrene Non-binding Surface plate (Corning®, item number 3575) using a Labcyte Echo acoustic liquid handler. […] 20 μL of a 2× solution (200 nM) of recombinant N-terminal MLH1 (residues 15-340) in assay buffer (25 mM HEPES, pH 7.5, 250 mM NaCl, 10 mM MgCl2, 0.01% Triton X-100, 5 mM Dithiothreitol) was added to all wells in columns 1-23 and 20 μL assay buffer was added to all wells in column 24 using an E1-ClipTip pipette (ThermoFisher). Plates were centrifuged for 1 minute at 250 xg and were incubated at room temperature for 30 minutes prior to the addition of 20 μL of 2×(10 nM) of 5-((5-(4-((2-(2-(Benzyloxy)-4,6-dihydroxybenzoyl)isoindolin-5-yl)methyl)piperazin-1-yl)pentyl)carbamoyl)-2-(6-(dimethylamino)-3-(dimethyliminio)-3H-xanthen-9-yl)benzoate (referred to hereinafter as “probe compound”) in assay buffer (prepared from a 1 mM DMSO stock) with an E1-ClipTip pipette (ThermoFisher). The final concentration of N-terminal MLH1 was 100 nM and the final concentration of the probe compound was 5 nM. Compound plates were centrifuged for 1 minute at 250 xg for 1 minute and immediately read on a PheraStar FSX (fitted with 384-well aperture spoon and 590 675 675 FP optic module). The gain and focus were adjusted before each plate was read so that the polarisation of a no enzyme control (column 24) was equal to 35 mP. Data were normalised against the no inhibitor controls (column 23) and no enzyme controls (column 24).

SMILES | IC50
CN(C)CCOc1cc2c(c(N[C@H]3CCOC3)c1)CN(C(=O)c1c(O)cc(C#N)cc1OCc1ccccc1)C2 [Example 19, (S)-3-(Benzyloxy)-4-(6-(2-(dimethylamino)ethoxy)-4-((tetrahydrofuran-3-yl)amino)isoindoline-2-carbonyl)-5-hydroxybenzonitrile] | 0.1 to 1 µM
O=C(c1c(O)cc(C(F)F)cc1OCc1ccccc1)N1CCc2cc(Cn3ccnc3)cc(N[C@H]3CCOC3)c2C1 [Example 4.22, (S)-(6-((1H-Imidazol-1-yl)methyl)-8-((tetrahydrofuran-3-yl)amino)-3,4-dihydroisoquinolin-2(1H)-yl)(2-(benzyloxy)-4-(difluoromethyl)-6-hydroxyphenyl)methanone] | < 0.1 µM
Cn1cnc(-c2cc3c(c(N[C@H]4CCOC4)c2)CN(C(=O)c2c(O)cc(C(F)F)cc2OCc2ccccc2)CC3)c1 [Example 4.27, (S)-(2-(Benzyloxy)-4-(difluoromethyl)-6-hydroxyphenyl) (6-(1-methyl-1H-imidazol-4-yl)-8-((tetrahydrofuran-3-yl)amino)-3,4-dihydroisoquinolin-2(1H)-yl)methanone] | 0.1 to 1 µM
O=C(c1c(O)cc(C(F)F)cc1OCc1ccccc1)N1Cc2ccc(OCCN3CCOCC3)cc2C1 [Example 4.70, (2-(Benzyloxy)-4-(difluoromethyl)-6-hydroxyphenyl) (5-(2-morpholinoethoxy)isoindolin-2-yl) methanone] | 0.1 to 1 µM
CN(C)CCOc1cc2c(c(N[C@H]3CCOC3)c1)CN(C(=O)c1c(O)cc(Cl)cc1OCc1ccccc1)C2 [Example 10, (S)-(2-(Benzyloxy)-4-chloro-6-hydroxyphenyl)(6-(2-(dimethylamino)ethoxy)-4-((tetrahydrofuran-3-yl)amino)isoindolin-2-yl)methanone] | < 0.1 µM
CN1CC[C@H](Nc2cccc3c2CN(C(=O)c2c(O)cc(C(F)F)cc2OCc2ccccc2)C3)C1=O [Example 4.12, (S)-3-((2-(2-(Benzyloxy)-4-(difluoromethyl)-6-hydroxybenzoyl)isoindolin-4-yl)amino)-1-methylpyrrolidin-2-one] | 0.1 to 1 µM
O=C(c1c(O)cc(C(F)F)cc1OCc1ccccc1)N1Cc2ccc(Oc3ccncc3)cc2C1 [Example 4.60, (2-(Benzyloxy)-4-(difluoromethyl)-6-hydroxyphenyl)(5-(pyridin-4-yloxy)isoindolin-2-yl)methanone] | 0.1 to 1 µM
N#Cc1cc(O)c(C(=O)N2Cc3cccc(NC4COC(=O)C4)c3C2)c(OCc2ccccc2)c1 (stereo not drawn) [Example 10.19, 3-(Benzyloxy)-5-hydroxy-4-(4-((5-oxotetrahydrofuran-3-yl)amino)isoindoline-2-carbonyl)benzonitrile] | 0.1 to 1 µM
CN1CC[C@H](Oc2ccc3c(c2)CN(C(=O)c2c(O)cc(C(F)F)cc2OCc2ccccc2)CC3)C1 [Example 4.68, (S)-(2-(Benzyloxy)-4-(difluoromethyl)-6-hydroxyphenyl)(7-((1-methylpyrrolidin-3-yl)oxy)-3,4-dihydroisoquinolin-2(1H)-yl)methanone] | 0.1 to 1 µM
CN(C)CCOc1cc2c(c(C(F)F)c1)CN(C(=O)c1c(O)cc(C(F)F)cc1OCc1ccccc1)CC2 [Example 4.74, (2-(Benzyloxy)-4-(difluoromethyl)-6-hydroxyphenyl)(8-(difluoromethyl)-6-(2-(dimethylamino)ethoxy)-3,4-dihydroisoquinolin-2(1H)-yl)methanone] | 0.1 to 1 µM
CN(C)CCOc1nc2c(c(NC3CCOC3)n1)CN(C(=O)c1c(O)cc(C#N)cc1OCc1ccccc1)CC2 (stereo not drawn) [Example 27.16, 3-(Benzyloxy)-4-(2-(2-(dimethylamino)ethoxy)-4-((tetrahydrofuran-3-yl)amino)-5,6,7,8-tetrahydropyrido[4,3-d]pyrimidine-6-carbonyl)-5-hydroxybenzonitrile] | 0.1 to 1 µM
O=C(c1c(O)cc(C(F)F)cc1OCc1ccccn1)N1Cc2cccc(NC3COC3)c2C1 [Example 4.5, (4-(Difluoro methyl)-2-hydroxy-6-(pyridin-2-ylmethoxy)phenyl) (4-(oxetan-3-ylamino)isoindolin-2-yl) methanone] | 0.1 to 1 µM
O=C(c1c(O)cc(C(F)F)cc1OCc1ccccc1)N1CCc2ccc(N[C@H]3CCOC3)cc21 (single isomer, unassigned) [Example 27.2b, (S)-(2-(Benzyloxy)-4-(difluoromethyl)-6-hydroxyphenyl)(6-((tetrahydrofuran-3-yl)amino)indolin-1-yl)methanone or (R)-(2-(benzyloxy)-4-(difluoromethyl)-6-hydroxyphenyl)(6-((tetrahydrofuran-3-yl)amino)indolin-1-yl)methanone] | 0.1 to 1 µM
CNc1cccc2c1CN(C(=O)c1c(O)cc(C(F)F)cc1OCc1ccccc1)C2 [Example 4.34, (2-(Benzyloxy)-4-(difluoromethyl)-6-hydroxyphenyl) (4-(methylamino)isoindolin-2-yl) methanone] | 1 to 10 µM
N#Cc1cc(O)c(C(=O)N2Cc3cccc(NC4COC4)c3C2)c(OCc2ccccc2)c1 [Example 10.26, 3-(Benzyloxy)-5-hydroxy-4-(4-(oxetan-3-ylamino)isoindoline-2-carbonyl)benzonitrile] | 0.1 to 1 µM
CN1CCC(Oc2ccc3c(c2)CCN(C(=O)c2c(O)cc(C(F)F)cc2OCc2ccccc2)C3)CC1 [Example 4.45, (2-(Benzyloxy)-4-(difluoromethyl)-6-hydroxyphenyl)(6-((1-methylpiperidin-4-yl)oxy)-3,4-dihydroisoquinolin-2(1H)-yl)methanone] | 0.1 to 1 µM
O=C(c1c(O)cc(C(F)F)cc1OCc1ccccc1)N1Cc2cc(Cn3ccnc3)cc(N[C@H]3CCOC3)c2C1 [Example 4.19, (S)-(6-((1H-Imidazol-1-yl)methyl)-4-((tetrahydrofuran-3-yl)amino)isoindolin-2-yl) (2-(benzyloxy)-4-(difluoromethyl)-6-hydroxyphenyl)methanone] | 0.1 to 1 µM
O=C(c1c(O)cc(C(F)F)cc1OCc1ccccc1)N1Cc2cccc(N[C@H]3CCOC3)c2C1 [Example 4, (S)-(2-(Benzyloxy)-4-(difluoromethyl)-6-hydroxyphenyl)(4-((tetrahydrofuran-3-yl)amino)isoindolin-2-yl)methanone] | 0.1 to 1 µM
COCCNc1cccc2c1CN(C(=O)c1c(O)cc(C(F)F)cc1OCc1ccccc1)CC2 [Example 4.37, (2-(Benzyloxy)-4-(difluoromethyl)-6-hydroxyphenyl)(8-((2-methoxyethyl)amino)-3,4-dihydroisoquinolin-2(1H)-yl)methanone] | 1 to 10 µM
CN(C)Cc1cc2c(c(N[C@H]3CCOC3)c1)CN(C(=O)c1c(O)cc(C(F)F)cc1OCc1ccccc1)C2 [Example 4.2, (S)-(2-(Benzyloxy)-4-(difluoromethyl)-6-hydroxyphenyl)(6-((dimethylamino)methyl)-4-((tetrahydrofuran-3-yl)amino)isoindolin-2-yl)methanone] | 0.1 to 1 µM
CN1C[C@H](Nc2cccc3c2CN(C(=O)c2c(O)cc(C#N)cc2OCc2ccccc2)C3)CC1=O (single isomer, unassigned) [Example 10.7, (R)-3-(Benzyloxy)-5-hydroxy-4-(4-((1-methyl-5-oxopyrrolidin-3-yl)amino)isoindoline-2-carbonyl)benzonitrile or (S)-3-(benzyloxy)-5-hydroxy-4-(4-((1-methyl-5-oxopyrrolidin-3-yl)amino)isoindoline-2-carbonyl)benzonitrile] | 0.1 to 1 µM

Source: patent US20260217687A1 (NeoPhore Limited, priority 2023, published 2026)
